Test results published in ChEMBL document CHEMBL1148579, “Influence of various central moieties on the hypolipidemic properties of long hydrocarbon chain diols and diacids” (J Med Chem, 2006).

Key:
Rattus norvegicus [1] = experiment: Activity against high density lipoprotein cholesterol level in obese female Zucker rat serum after 1 week at 100 mg/kg (percent change from pre-treatment); format: functional
Rattus norvegicus [2] = experiment: Clearance of the metabolite 2,2,12,12-tetramethyl-7-oxotridecanedioic acid in male Wistar rat administered with the parent compound at 100 mg/kg, po; format: ADME, organism-based; parameters: dose 100 mg/kg, route oral; conditions: in vivo
Rattus norvegicus [3] = experiment: Half life of the metabolite 7,13-dihydroxy-2,2,12,12-tetramethyltridecanoic acid in male Wistar rat administered with the parent compound at 100 mg/kg, po; format: ADME, organism-based; parameters: dose 100 mg/kg, route oral; conditions: in vivo
Rattus norvegicus [4] = experiment: Volume of distribution of the metabolite 7-hydroxy-2,2,12,12-tetramethyltridecanedioic acid in male Wistar rat administered with the parent compound at 100 mg/kg, po; format: ADME, organism-based; parameters: dose 100 mg/kg, route oral; conditions: in vivo
Rattus norvegicus [5] = experiment: Half life of the metabolite 13-hydroxy-2,2,12,12-tetramethyl-7-oxotridecanoic acid in male Wistar rat administered with the parent compound at 100 mg/kg, po; format: ADME, organism-based; parameters: dose 100 mg/kg, route oral; conditions: in vivo
Rattus norvegicus [6] = experiment: Cmax of the metabolite 7-hydroxy-2,2,12,12-tetramethyltridecanedioic acid in male Wistar rat administered with the parent compound at 100 mg/kg, po; format: ADME, organism-based; parameters: dose 100 mg/kg, route oral; conditions: in vivo
Rattus norvegicus [7] = experiment: Tmax of the metabolite 13-hydroxy-2,2,12,12-tetramethyl-7-oxotridecanoic acid in male Wistar rat administered with the parent compound at 100 mg/kg, po; format: ADME, organism-based; parameters: dose 100 mg/kg, route oral; conditions: in vivo
Rattus norvegicus [8] = experiment: Cmax of the metabolite 13-hydroxy-2,2,12,12-tetramethyl-7-oxotridecanoic acid in male Wistar rat administered with the parent compound at 100 mg/kg, po; format: ADME, organism-based; parameters: dose 100 mg/kg, route oral; conditions: in vivo
Hepatocyte = experiment: Inhibition of lipid synthesis in primary rat hepatocytes by incorporation radiolabeled acetate into cellular lipids; format: functional, cell-based, Sprague-Dawley; conditions: Rattus norvegicus, Sprague-Dawley, Hepatocyte; read-out: IC50
Rattus norvegicus [9] = experiment: Clearance of the metabolite 7-hydroxy-2,2,12,12-tetramethyltridecanedioic acid in male Wistar rat administered with the parent compound at 100 mg/kg, po; format: ADME, organism-based; parameters: dose 100 mg/kg, route oral; conditions: in vivo
Rattus norvegicus [10] = experiment: AUC (infinity) of the metabolite 7,13-dihydroxy-2,2,12,12-tetramethyltridecanoic acid in male Wistar rat administered with the parent compound at 100 mg/kg, po; format: ADME, organism-based, Plasma; parameters: time infinity, dose 100 mg/kg, route oral; conditions: in vivo
Rattus norvegicus [11] = experiment: Clearance of the metabolite 7,13-dihydroxy-2,2,12,12-tetramethyltridecanoic acid in male Wistar rat administered with the parent compound at 100 mg/kg, po; format: ADME, organism-based; parameters: dose 100 mg/kg, route oral; conditions: in vivo
Rattus norvegicus [12] = experiment: Tmax of the metabolite 2,2,12,12-tetramethyl-7-oxotridecanedioic acid in male Wistar rat administered with the parent compound at 100 mg/kg, po; format: ADME, organism-based; parameters: dose 100 mg/kg, route oral; conditions: in vivo
Rattus norvegicus [13] = experiment: Volume of distribution of the metabolite 13-hydroxy-2,2,12,12-tetramethyl-7-oxotridecanoic acid in male Wistar rat administered with the parent compound at 100 mg/kg, po; format: ADME, organism-based; parameters: dose 100 mg/kg, route oral; conditions: in vivo
Rattus norvegicus [14] = experiment: Half life of the metabolite 2,2,12,12-tetramethyl-7-oxotridecanedioic acid in male Wistar rat administered with the parent compound at 100 mg/kg, po; format: ADME, organism-based; parameters: dose 100 mg/kg, route oral; conditions: in vivo
Rattus norvegicus [15] = experiment: AUC of the metabolite 7,13-dihydroxy-2,2,12,12-tetramethyltridecanoic acid in male Wistar rat administered with the parent compound at 100 mg/kg, po; format: ADME, organism-based, Plasma; parameters: dose 100 mg/kg, route oral; conditions: in vivo
Rattus norvegicus [16] = experiment: Cmax of the metabolite 7,13-dihydroxy-2,2,12,12-tetramethyltridecanoic acid in male Wistar rat administered with the parent compound at 100 mg/kg, po; format: ADME, organism-based; parameters: dose 100 mg/kg, route oral; conditions: in vivo
Rattus norvegicus [17] = experiment: Cmax of the metabolite 2,2,12,12-tetramethyl-7-oxotridecanedioic acid in male Wistar rat administered with the parent compound at 100 mg/kg, po; format: ADME, organism-based; parameters: dose 100 mg/kg, route oral; conditions: in vivo
Rattus norvegicus [18] = experiment: Clearance of the metabolite 13-hydroxy-2,2,12,12-tetramethyl-7-oxotridecanoic acid in male Wistar rat administered with the parent compound at 100 mg/kg, po; format: ADME, organism-based; parameters: dose 100 mg/kg, route oral; conditions: in vivo
Rattus norvegicus [19] = experiment: Activity against non high density lipoprotein cholesterol level in obese female Zucker rat serum after 2 weeks at 100 mg/kg (percent change from pre-treatment); format: functional
Rattus norvegicus [20] = experiment: Activity against non high density lipoprotein cholesterol level in obese female Zucker rat serum after 1 week at 100 mg/kg (percent change from pre-treatment); format: functional
Rattus norvegicus [21] = experiment: Volume of distribution of the metabolite 7,13-dihydroxy-2,2,12,12-tetramethyltridecanoic acid in male Wistar rat administered with the parent compound at 100 mg/kg, po; format: ADME, organism-based; parameters: dose 100 mg/kg, route oral; conditions: in vivo
Rattus norvegicus [22] = experiment: AUC (infinity) of the metabolite 7-hydroxy-2,2,12,12-tetramethyltridecanedioic acid in male Wistar rat administered with the parent compound at 100 mg/kg, po; format: ADME, organism-based, Plasma; parameters: time infinity, dose 100 mg/kg, route oral; conditions: in vivo
Rattus norvegicus [23] = experiment: Tmax of the metabolite 7-hydroxy-2,2,12,12-tetramethyltridecanedioic acid in male Wistar rat administered with the parent compound at 100 mg/kg, po; format: ADME, organism-based; parameters: dose 100 mg/kg, route oral; conditions: in vivo
Rattus norvegicus [24] = experiment: Activity against triglyceride level in obese female Zucker rat serum after 2 weeks at 100 mg/kg (percent change from pre-treatment); format: functional
Rattus norvegicus [25] = experiment: Tmax of the metabolite 7,13-dihydroxy-2,2,12,12-tetramethyltridecanoic acid in male Wistar rat administered with the parent compound at 100 mg/kg, po; format: ADME, organism-based; parameters: dose 100 mg/kg, route oral; conditions: in vivo
Rattus norvegicus [26] = experiment: AUC of the metabolite 7-hydroxy-2,2,12,12-tetramethyltridecanedioic acid in male Wistar rat administered with the parent compound at 100 mg/kg, po; format: ADME, organism-based, Plasma; parameters: dose 100 mg/kg, route oral; conditions: in vivo
Rattus norvegicus [27] = experiment: AUC (infinity) of the metabolite 2,2,12,12-tetramethyl-7-oxotridecanedioic acid in male Wistar rat administered with the parent compound at 100 mg/kg, po; format: ADME, organism-based, Plasma; parameters: time infinity, dose 100 mg/kg, route oral; conditions: in vivo
Rattus norvegicus [28] = experiment: AUC of the metabolite 2,2,12,12-tetramethyl-7-oxotridecanedioic acid in male Wistar rat administered with the parent compound at 100 mg/kg, po; format: ADME, organism-based, Plasma; parameters: dose 100 mg/kg, route oral; conditions: in vivo
Rattus norvegicus [29] = experiment: Tolerability of compound upto 2000 mg/kg; format: organism-based; parameters: dose 2000 mg/kg; conditions: in vivo
Rattus norvegicus [30] = experiment: Half life of the metabolite 7-hydroxy-2,2,12,12-tetramethyltridecanedioic acid in male Wistar rat administered with the parent compound at 100 mg/kg, po; format: ADME, organism-based; parameters: dose 100 mg/kg, route oral; conditions: in vivo
Rattus norvegicus [31] = experiment: AUC of the metabolite 13-hydroxy-2,2,12,12-tetramethyl-7-oxotridecanoic acid in male Wistar rat administered with the parent compound at 100 mg/kg, po; format: ADME, organism-based, Plasma; parameters: dose 100 mg/kg, route oral; conditions: in vivo
Rattus norvegicus [32] = experiment: Activity against triglyceride level in obese female Zucker rat serum after 1 week at 100 mg/kg (percent change from pre-treatment); format: functional
Rattus norvegicus [33] = experiment: Activity against high density lipoprotein cholesterol level in obese female Zucker rat serum after 2 weeks at 100 mg/kg (percent change from pre-treatment); format: functional
Rattus norvegicus [34] = experiment: AUC (infinity) of the metabolite 13-hydroxy-2,2,12,12-tetramethyl-7-oxotridecanoic acid in male Wistar rat administered with the parent compound at 100 mg/kg, po; format: ADME, organism-based, Plasma; parameters: time infinity, dose 100 mg/kg, route oral; conditions: in vivo
Rattus norvegicus [35] = experiment: Volume of distribution of the metabolite 2,2,12,12-tetramethyl-7-oxotridecanedioic acid in male Wistar rat administered with the parent compound at 100 mg/kg, po; format: ADME, organism-based; parameters: dose 100 mg/kg, route oral; conditions: in vivo
Rattus norvegicus [36] = experiment: Tolerability of compound upto 5000 mg/kg; format: ADME, organism-based; parameters: dose 5000 mg/kg; conditions: in vivo
[37] = Cmax in male Wistar rat at 100 mg/kg, po; format: ADME, organism-based; parameters: dose 100 mg/kg, route oral; conditions: in vivo
[38] = Tmax in male Wistar rat at 100 mg/kg, po; format: ADME, organism-based; parameters: dose 100 mg/kg, route oral; conditions: in vivo
Rattus norvegicus [39] = experiment: Volume of distribution in male Wistar rat at 100 mg/kg, po; format: ADME, organism-based; parameters: dose 100 mg/kg, route oral; conditions: in vivo
[40] = Clearance in male Wistar rat at 100 mg/kg, po; format: ADME, organism-based; parameters: dose 100 mg/kg, route oral; conditions: in vivo
[41] = AUC (infinity) in male Wistar rat at 100 mg/kg, po; format: ADME, organism-based; parameters: time infinity, dose 100 mg/kg, route oral; conditions: plasma
[42] = AUC in male Wistar rat at 100 mg/kg, po; format: ADME, organism-based; parameters: dose 100 mg/kg, route oral; conditions: plasma
[43] = Half life in male Wistar rat at 100 mg/kg, po; format: ADME, organism-based; parameters: dose 100 mg/kg, route oral; conditions: in vivo

In the case of CC(C)(CO)CCCCC(=O)CCCCC(C)(C)CO, the Activity (Rattus norvegicus [1]) is reported as 111%, the CL (Rattus norvegicus [2]) is reported as 86.8 mL/h and the T1/2 (Rattus norvegicus [3]) is reported as 3.1 h. It also gave a Vdss (Rattus norvegicus [4]) of 2.0721 L/kg, a T1/2 (Rattus norvegicus [5]) of 2.5 h and a Cmax (Rattus norvegicus [6]) of 40600 ng/mL. For the same compound, the Tmax (Rattus norvegicus [7]) was 0.5 h, the Cmax (Rattus norvegicus [8]) was 2000 ng/mL and the IC50 (Hepatocyte) was 1.5 µM. The CL (Rattus norvegicus [9]) was 28.4 mL/h, the AUC (Rattus norvegicus [10]) was 291.6 µg·h/mL and the CL (Rattus norvegicus [11]) was 69 mL/h. For the same compound, the Tmax (Rattus norvegicus [12]) was 6 h, the Vdss (Rattus norvegicus [13]) was 13.6709 L/kg and the T1/2 (Rattus norvegicus [14]) was 13.5 h. For the same compound, the AUC (Rattus norvegicus [15]) was 289.9 µg·h/mL, the Cmax (Rattus norvegicus [16]) was 21400 ng/mL and the Cmax (Rattus norvegicus [17]) was 14900 ng/mL. It also gave a CL (Rattus norvegicus [18]) of 747.9 mL/h, an Activity (Rattus norvegicus [19]) of -10% and an Activity (Rattus norvegicus [20]) of -23%. The Vdss (Rattus norvegicus [21]) was 1.5332 L/kg, the AUC (Rattus norvegicus [22]) was 1176.1 µg·h/mL and the Tmax (Rattus norvegicus [23]) was 6 h. The Activity (Rattus norvegicus [24]) was -29%, the Tmax (Rattus norvegicus [25]) was 6 h and the AUC (Rattus norvegicus [26]) was 703.3 µg·h/mL. For the same compound, the AUC (Rattus norvegicus [27]) was 344.9 µg·h/mL, the AUC (Rattus norvegicus [28]) was 230.3 µg·h/mL and the Activity (Rattus norvegicus [29]) was “Active”. The T1/2 (Rattus norvegicus [30]) was 16.9 h, the AUC (Rattus norvegicus [31]) was 26.7 µg·h/mL and the Activity (Rattus norvegicus [32]) was -54%. It also gave an Activity (Rattus norvegicus [33]) of 126%, an AUC (Rattus norvegicus [34]) of 26.8 µg·h/mL and a Vdss (Rattus norvegicus [35]) of 5.6319 L/kg.

With CC(C)(CO)CCCCSCCCCC(C)(C)CO the Activity (Rattus norvegicus [1]) was 141%, the IC50 (Hepatocyte) was 18 µM and the Activity (Rattus norvegicus [36]) was “Active”. The Activity (Rattus norvegicus [19]) was 9%, the Activity (Rattus norvegicus [20]) was -11% and the Activity (Rattus norvegicus [24]) was -56%. The Activity (Rattus norvegicus [32]) was -37% and the Activity (Rattus norvegicus [33]) was 153%.

Compound CC(C)(CCCCC(O)CCCCC(C)(C)C(=O)O)C(=O)O has an Activity (Rattus norvegicus [1]) of 57%, a Cmax [37] of 40600 ng/mL and a Tmax [38] of 6 h. For the same compound, the IC50 (Hepatocyte) was 4.7 µM, the Activity (Rattus norvegicus [19]) was -41% and the Activity (Rattus norvegicus [20]) was -6%. The Activity (Rattus norvegicus [24]) was -59%, the Vdss (Rattus norvegicus [39]) was 2.0721 L/kg and the CL/F [40] was 0.473 mL/min. It also gave an AUC(0-inf) [41] of 1180 µg·h/mL, an AUC [42] of 703 µg·h/mL and an Activity (Rattus norvegicus [32]) of -32%. It also gave an Activity (Rattus norvegicus [33]) of 50% and a half-life [43] of 16.9 h.
